According to patent US8791143B2, “Anthranilic diamide derivatives having cyclic side-chains” (priority 2010, dated 2014):
Like-named read-outs stand apart in the source and are kept apart here.

What was measured:
[1] = test system: caterpillars of the armyworm (Spodoptera frugiperda); assay: Spodoptera frugiperda test (SPODFR spray treatment); type: in vivo; conditions: Spodoptera frugiperda, 168 h, read-out: activity in % (caterpillars killed)
[2] = log P by HPLC on reversed-phase columns (EEC Directive 79/831 Annex V.A8); type: physicochemical
[3] = test system: larvae of the mustard beetle (Phaedon cochleariae); assay: Phaedon test (PHAECO spray treatment); conditions: Phaedon cochleariae, 168 h, read-out: activity in % (beetle larvae killed)
[4] = application rate 100 g/ha, after 7 days
[5] = reversed-phase C18 HPLC column, pH 2.7, HPLC reversed-phase C18, acidic range pH 2.7 (HCOOH), only or first value of the cell, read-out: log P

Structure (SMILES) | pest or weed control at 100 g/ha [1, 4] | chromatographic logP [2, 5] | pest or weed control at 100 g/ha [3] | pest or weed control at 100 g/ha [1] | chromatographic logP ([2]; pH 2.7, log P) | log P (second value after the slash) ([2]; pH 2.7)
O=C(NCc1cccc(Cl)c1)c1cc(Cl)cc(F)c1NC(=O)c1cc(Cn2nnc(C(F)(F)F)n2)nn1-c1ncccc1Cl [Example 207] | 100% | 3.89 | 100% |  |  | 
Cc1cc(Cl)cc(C(=O)NC(C)c2ccc(Cl)cc2F)c1NC(=O)c1cc(Cn2nnc(C(F)(F)F)n2)nn1-c1ncccc1Cl (stereo not shown) [Example 125] | 100% | 4.42 | 100% |  |  | 
Cc1c(F)ccc(C(=O)NCc2ccccc2Cl)c1NC(=O)c1cc(Cn2nnc(C(F)(F)F)n2)nn1-c1ncccc1Cl [Example 202] |  |  | 100% | 100% | 3.79 | 
Cc1cc(Cl)cc(C(=O)NCc2ccc(F)cc2F)c1NC(=O)c1cc(Cn2nnc(C(F)(F)F)n2)nn1-c1ncccc1Cl [Example 107] |  |  | 100% | 100% | 3.9 | 
Cc1cc(Cl)cc(C(=O)NC(C)c2ccc(C(F)(F)F)cn2)c1NC(=O)c1cc(Cn2nnc(C(F)(F)F)n2)nn1-c1ncccc1Cl (stereo not shown) [Example 234] | 100% | 4.04 | 100% |  |  | 
Cc1cc(Cl)cc(C(=O)NCc2cc(Cl)ccn2)c1NC(=O)c1cc(Cn2nnc(C(F)(F)F)n2)nn1-c1ncccc1Cl [Example 232] |  |  | 100% | 100% | 3.45 | 
Cc1cc(C#N)cc(C(=O)NCc2cccc(OC(F)F)c2)c1NC(=O)c1cc(Cn2nnc(C(F)(F)F)n2)nn1-c1c(Cl)cccc1Cl [Example 215] | 100% | 3.78 | 100% |  |  | 
Cc1cc(C#N)cc(C(=O)NCc2cccc(Cl)c2)c1NC(=O)c1cc(Cn2nnc(C(F)(F)F)n2)nn1-c1ccccc1Cl [Example 75] | 100% | 3.76 | 100% |  |  | 
Cc1cc(Cl)cc(C(=O)NC(C)c2ccc(OC(F)(F)F)cc2)c1NC(=O)c1cc(Cn2nnc(C(F)(F)F)n2)nn1-c1ncccc1Cl (stereo not shown) [Example 117] | 100% | 4.52 | 100% |  |  | 
Cc1cc(Cl)cc(C(=O)NC(C)c2cccc(C(F)(F)F)c2)c1NC(=O)c1cc(Cn2nnc(C(F)(F)F)n2)nn1-c1ncccc1Cl (stereo not shown) [Example 120] | 100% | 4.42 | 100% |  |  | 
Cc1cc(Cl)cc(C(=O)NC(C)c2ccc(Cl)c(Cl)c2)c1NC(=O)c1cc(Cn2nnc(C(F)(F)F)n2)nn1-c1ncccc1Cl (stereo not shown) [Example 142] | 100% | 4.58 | 100% |  |  | 
Cc1cc(Cl)cc(C(=O)NC2CCSCC2)c1NC(=O)c1cc(Cn2nnc(C(F)(F)F)n2)nn1-c1ncccc1Cl [Example 56] |  |  | 100% | 100% | 3.58 | 
Cc1cc(C#N)cc(C(=O)NCc2ccccc2)c1NC(=O)c1cc(Cn2nnc(C(F)(F)F)n2)nn1-c1ccccc1Cl [Example 71] | 100% | 3.77 | 100% |  |  | 
O=C(NCc1cccc(OC(F)(F)F)c1)c1cc(Br)cc(Cl)c1NC(=O)c1cc(Cn2nnc(C(F)(F)F)n2)nn1-c1ncccc1Cl [Example 194] | 100% | 4.32 | 100% |  |  | 
Cc1cc(Cl)cc(C(=O)NC2COC2)c1NC(=O)c1cc(Cn2nc(C(F)(F)F)nc2C(F)(F)F)nn1-c1ncccc1Cl [Example 8] |  |  | 100% | 100% | 3.24 | 
Cc1ccc(Cl)c(C(=O)NCc2cccc(Cl)c2)c1NC(=O)c1cc(Cn2nnc(C(F)(F)F)n2)nn1-c1ncccc1Cl [Example 197] |  |  | 100% | 100% | 3.74 | 
Cc1cc(I)cc(C(=O)NCc2ccc(OC(F)(F)F)cc2)c1NC(=O)c1cc(Cn2nnc(C(F)(F)C(F)(F)F)n2)nn1-c1ncccc1Cl [Example 148] | 100% | 4.85 | 100% |  |  | 
Cc1cc(Cl)cc(C(=O)NCc2ccc(C(C)(C)C)cc2)c1NC(=O)c1cc(Cn2nnc(C(F)(F)F)n2)nn1-c1ncccc1Cl [Example 91] | 100% | 4.85 | 100% |  |  | 
Cc1cc(C#N)cc(C(=O)NCc2ccc(OC(F)F)cc2)c1NC(=O)c1cc(Cn2nnc(C(F)(F)F)n2)nn1-c1ccccc1Cl [Example 191] | 100% | 3.81 | 100% |  |  | 
Cc1cc(Cl)cc(C(=O)NCc2ccc(OC(F)F)cc2)c1NC(=O)c1cc(Cn2nnc(C(F)F)n2)nn1-c1ncccc1Cl [Example 161] | 100% | 3.42 | 100% |  |  | 

Structure (SMILES) | pest or weed control at 100 g/ha [1, 4] | chromatographic logP [2, 5] | pest or weed control at 100 g/ha [3] | pest or weed control at 100 g/ha [1] | chromatographic logP ([2]; pH 2.7, log P) | log P (second value after the slash) ([2]; pH 2.7)
Cc1cc(Cl)cc(C(=O)NC(C)c2ccc(C(F)(F)F)cc2)c1NC(=O)c1cc(Cn2nnc(C(F)(F)F)n2)nn1-c1ncccc1Cl (stereo not shown) [Example 121] | 100% | 4.32 | 100% |  |  | 
Cc1cc(C#N)cc(C(=O)NCc2cccc(S(F)(F)(F)(F)F)c2)c1NC(=O)c1cc(Cn2nnc(C(F)(F)F)n2)nn1-c1ncccc1Cl [Example 63] | 100% | 4.02 | 100% |  |  | 
Cc1cc(C#N)cc(C(=O)NCc2cccc(OC(F)F)c2)c1NC(=O)c1cc(Cn2nnc(C(F)(F)F)n2)nn1-c1ncccc1Cl [Example 180] | 100% | 3.54 | 100% |  |  | 
Cc1cc(Cl)cc(C(=O)NCc2ccc(F)cc2)c1NC(=O)c1cc(Cn2nnc(C(F)(F)F)n2)nn1-c1ncccc1Cl [Example 99] |  |  | 100% | 100% | 3.81 | 
Cc1cc(Cl)cc(C(=O)NCc2cccc(F)c2)c1NC(=O)c1cc(Cn2nnc(C(F)(F)F)n2)nn1-c1ncccc1Cl [Example 98] |  |  | 100% | 100% | 3.79 | 
Cc1cc(C#N)cc(C(=O)NCc2ccc(OC(F)(F)F)cc2)c1NC(=O)c1cc(Cn2nnc(C(F)(F)F)n2)nn1-c1ccccc1Cl [Example 192] | 100% | 3.98 | 100% |  |  | 
Cc1cccc(C(C)NC(=O)c2cc(Cl)cc(C)c2NC(=O)c2cc(Cn3nnc(C(F)(F)F)n3)nn2-c2ncccc2Cl)c1 (stereo not shown) [Example 113] |  |  | 100% | 100% | 4.28 | 
COC(=O)c1ccc(CNC(=O)c2cc(Cl)cc(C)c2NC(=O)c2cc(Cn3nnc(C(F)(F)F)n3)nn2-c2ncccc2Cl)cc1 [Example 127] | 100% | 3.68 | 100% |  |  | 
O=C(NCc1ccccc1OC(F)(F)F)c1cc(Cl)cc(F)c1NC(=O)c1cc(Cn2nnc(C(F)(F)F)n2)nn1-c1ncccc1Cl [Example 209] | 100% | 4.12 | 100% |  |  | 
Cc1cc(C#N)cc(C(=O)NCc2cccc(OC(F)(F)F)c2)c1NC(=O)c1cc(Cn2nnc(C(F)(F)F)n2)nn1-c1ccccc1Cl [Example 213] | 100% | 4.18 | 100% |  |  | 
O=C(NCc1ccc(OC(F)(F)F)cc1)c1cc(Cl)cc(F)c1NC(=O)c1cc(Cn2nnc(C(F)(F)F)n2)nn1-c1ncccc1Cl [Example 211] | 100% | 4.21 | 100% |  |  | 
Cc1cc(Cl)cc(C(=O)NCc2ccc(Cl)cc2Cl)c1NC(=O)c1cc(Cn2nnc(C(F)(F)F)n2)nn1-c1ncccc1Cl [Example 92] |  |  | 100% | 100% | 4.41 | 
Cc1cc(Cl)cc(C(=O)NC2=NCCS2)c1NC(=O)c1cc(Cn2nnc(C(F)(F)C(F)(F)F)n2)nn1-c1ncccc1Cl [Example 47] |  |  | 100% | 100% | 3.9 | 3.58
Cc1cc(Cl)cc(C(=O)NCc2ccc(Cl)c(Cl)c2)c1NC(=O)c1cc(Cn2nnc(C(F)(F)F)n2)nn1-c1ncccc1Cl [Example 93] |  |  | 100% | 100% | 4.37 | 
Cc1cc(C#N)cc(C(=O)NCc2cccc(OC(F)F)c2)c1NC(=O)c1cc(Cn2nnc(C(F)(F)F)n2)nn1-c1ccccc1Cl [Example 212] | 100% | 3.67 | 100% |  |  | 
COc1ccc(CNC(=O)c2cc(C#N)cc(C)c2NC(=O)c2cc(Cn3nnc(C(F)(F)F)n3)nn2-c2ccccc2Cl)cc1 [Example 76] | 100% | 3.77 | 100% |  |  | 
Cc1cc(Cl)cc(C(=O)NCc2cccc(C(F)(F)F)c2)c1NC(=O)c1cc(Cn2nnc(C(F)(F)F)n2)nn1-c1ncccc1Cl [Example 95] | 100% | 4.23 | 100% |  |  | 
Cc1cc(Cl)cc(C(=O)NCc2ccccc2C(F)(F)F)c1NC(=O)c1cc(Cn2nnc(C(F)(F)F)n2)nn1-c1ncccc1Cl [Example 118] | 100% | 4.21 | 100% |  |  | 
Cc1cc(C#N)cc(C(=O)NC2CSC2)c1NC(=O)c1cc(Cn2nnc(C(F)(F)C(F)(F)F)n2)nn1-c1ncccc1Cl [Example 11] |  |  | 100% | 100% | 3.43 | 
